The supplement of paper PMC8617591

What was measured:
[1] = system: Mycobacterium tuberculosis Erdman (autoluminescent); experiment: AUC25, normalised area under dose response up to IC25 (fraction (0-1)); higher = more potent at low dose
Procedure: (§1)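 DiaMOND equipotent two-drug combination dose responses against autoluminescent M. tuberculosis Erdman in 8 in vitro models. Read-out is OD600, or luminescence for the intracellular and dormancy models, normalised to untreated wells. Hill-fit Einf, AUC25 and GRinf are potency metrics; FIC50 and FIC90 are Loewe-additivity fractional inhibitory concentrations, given as log2 (negative = synergy). Replicates are averaged.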

[2] = system: Mycobacterium tuberculosis Erdman (autoluminescent); experiment: Einf, fitted maximum growth inhibition of combination (fraction); higher = stronger maximal inhibition
Procedure: as §1

[3] = system: Mycobacterium tuberculosis Erdman (autoluminescent); experiment: FIC90 (Loewe) at 90% inhibition (log2); higher = more antagonistic
Procedure: as §1

[4] = system: Mycobacterium tuberculosis Erdman (autoluminescent); experiment: GRinf, maximum normalised growth rate inhibition (unitless (-1 to 1)); higher = less effect (negative = killing)
Procedure: as §1

[5] = system: Mycobacterium tuberculosis Erdman (autoluminescent); experiment: FIC50 (Loewe) at 50% inhibition (log2); higher = more antagonistic
Procedure: as §1

NNC(=O)c1ccncc1 [isoniazid] + O=[N+]([O-])c1cn2c(n1)OC[C@@H](OCc1ccc(OC(F)(F)F)cc1)C2 [pretomanid]
Details	AUC25, [1]	Einf, [2]	FIC50, [5]	FIC90, [3]	GRinf, [4]
in vitro model: acidic pH 5.7, time point: constant (~7 days, model-specific)	0.13	0.866	0.312	–	-0.747
in vitro model: acidic pH 5.7, time point: terminal (~4-5 doublings, model-specific)	0.0878	0.99	0.274	0.597	-0.432
in vitro model: intracellular J774, time point: constant = terminal	–	1	–	0.496	-0.631

Details	AUC25, [1]	Einf, [2]	FIC50, [5]	FIC90, [3]	GRinf, [4]
in vitro model: butyrate, time point: constant (~7 days, model-specific)	0.0655	0.945	0.776	0.672	-0.0657
in vitro model: butyrate, time point: terminal (~4-5 doublings, model-specific)	0.0383	0.973	0.602	0.403	-0.0769
in vitro model: cholesterol 0.05 mM, time point: constant (~7 days, model-specific)	0.122	0.755	0.145	–	-0.201
in vitro model: cholesterol 0.05 mM, time point: terminal (~4-5 doublings, model-specific)	0.0915	0.922	5.18	0.199	-0.242
in vitro model: cholesterol-high 0.2 mM, time point: constant (~7 days, model-specific)	0.0893	0.875	0.379	–	-0.127
in vitro model: cholesterol-high 0.2 mM, time point: terminal (~4-5 doublings, model-specific)	0.0482	0.982	0.467	0.413	-0.542
in vitro model: dormancy (butyrate + nitrate, low O2), time point: constant (~7 days, model-specific)	0.0671	0.909	0.185	0.145	0.115
in vitro model: dormancy (butyrate + nitrate, low O2), time point: terminal (~4-5 doublings, model-specific)	0.0588	0.983	0.103	0.303	-0.198
in vitro model: standard 7H9 glycerol, time point: constant = terminal	0.0602	0.928	0.303	0.248	0.0614
in vitro model: valerate, time point: constant (~7 days, model-specific)	0.102	0.884	0.537	2.18	-0.208
in vitro model: valerate, time point: terminal (~4-5 doublings, model-specific)	0.0772	0.938	0.495	0.477	0.00535

CC(C)/N=c1\cc2n(-c3ccc(Cl)cc3)c3ccccc3nc-2cc1Nc1ccc(Cl)cc1 [clofazimine] + NC(=O)c1cnccn1 [pyrazinamide]
Details	AUC25, [1]	Einf, [2]	FIC50, [5]	FIC90, [3]	GRinf, [4]
in vitro model: acidic pH 5.7, time point: constant (~7 days, model-specific)	0.0987	0.807	-0.0856	–	-0.109
in vitro model: acidic pH 5.7, time point: terminal (~4-5 doublings, model-specific)	0.106	0.98	-0.519	-0.794	-0.397
in vitro model: intracellular J774, time point: constant = terminal	–	0.996	–	0.158	-0.38

Details	AUC25, [1]	Einf, [2]	FIC50, [5]	FIC90, [3]	GRinf, [4]
in vitro model: butyrate, time point: constant (~7 days, model-specific)	0.116	0.922	-0.639	0.884	-0.0318
in vitro model: butyrate, time point: terminal (~4-5 doublings, model-specific)	0.0881	0.958	-0.58	-0.361	-0.00889
in vitro model: cholesterol 0.05 mM, time point: constant (~7 days, model-specific)	0.146	0.653	–	–	-0.153
in vitro model: cholesterol 0.05 mM, time point: terminal (~4-5 doublings, model-specific)	0.143	0.923	0.474	–	-0.338
in vitro model: cholesterol-high 0.2 mM, time point: constant (~7 days, model-specific)	0.116	0.896	0.166	–	-0.475
in vitro model: cholesterol-high 0.2 mM, time point: terminal (~4-5 doublings, model-specific)	0.0971	1	0.233	0.114	-0.881
in vitro model: dormancy (butyrate + nitrate, low O2), time point: constant (~7 days, model-specific)	0.12	0.935	-0.722	-0.326	-0.0386
in vitro model: dormancy (butyrate + nitrate, low O2), time point: terminal (~4-5 doublings, model-specific)	0.0754	0.989	-0.936	-0.669	-0.387
in vitro model: standard 7H9 glycerol, time point: constant = terminal	0.11	0.96	-0.68	–	-0.102
in vitro model: valerate, time point: constant (~7 days, model-specific)	0.143	0.885	-0.679	–	-0.366
in vitro model: valerate, time point: terminal (~4-5 doublings, model-specific)	0.0829	0.938	0.0438	0.152	0.0893

CC(C)/N=c1\cc2n(-c3ccc(Cl)cc3)c3ccccc3nc-2cc1Nc1ccc(Cl)cc1 [clofazimine] + CC[C@@H](CO)NCCN[C@@H](CC)CO [ethambutol]
Details	AUC25, [1]	Einf, [2]	FIC50, [5]	FIC90, [3]	GRinf, [4]
in vitro model: acidic pH 5.7, time point: constant (~7 days, model-specific)	0.101	0.702	0.298	–	0.0851
in vitro model: acidic pH 5.7, time point: terminal (~4-5 doublings, model-specific)	0.0812	0.937	0.474	0.294	-0.228
in vitro model: intracellular J774, time point: constant = terminal	–	1	–	-0.448	-0.789

Details	AUC25, [1]	Einf, [2]	FIC50, [5]	FIC90, [3]	GRinf, [4]
in vitro model: butyrate, time point: constant (~7 days, model-specific)	0.0939	0.947	0.311	–	-0.0791
in vitro model: butyrate, time point: terminal (~4-5 doublings, model-specific)	0.0809	0.975	0.299	0.104	-0.0975
in vitro model: cholesterol 0.05 mM, time point: constant (~7 days, model-specific)	0.13	0.635	0.526	–	-0.0623
in vitro model: cholesterol 0.05 mM, time point: terminal (~4-5 doublings, model-specific)	0.137	0.854	0.199	–	-0.424
in vitro model: cholesterol-high 0.2 mM, time point: constant (~7 days, model-specific)	0.089	0.983	0.491	–	-0.666
in vitro model: cholesterol-high 0.2 mM, time point: terminal (~4-5 doublings, model-specific)	0.0861	0.999	0.255	0.466	-0.935
in vitro model: dormancy (butyrate + nitrate, low O2), time point: constant (~7 days, model-specific)	0.0731	0.788	-0.136	–	0.516
in vitro model: dormancy (butyrate + nitrate, low O2), time point: terminal (~4-5 doublings, model-specific)	0.114	0.967	0.277	0.818	-0.0829
in vitro model: standard 7H9 glycerol, time point: constant = terminal	0.111	0.963	-0.113	0.12	-0.234
in vitro model: valerate, time point: constant (~7 days, model-specific)	0.144	0.899	0.000309	–	-0.321
in vitro model: valerate, time point: terminal (~4-5 doublings, model-specific)	0.0819	0.913	0.0811	-0.728	-2.83e-05

COc1nc2ccc(Br)cc2cc1[C@@H](c1ccccc1)[C@@](O)(CCN(C)C)c1cccc2ccccc12 [bedaquiline] + CC(C)/N=c1\cc2n(-c3ccc(Cl)cc3)c3ccccc3nc-2cc1Nc1ccc(Cl)cc1 [clofazimine]
Details	AUC25, [1]	Einf, [2]	FIC50, [5]	FIC90, [3]	GRinf, [4]
in vitro model: acidic pH 5.7, time point: constant (~7 days, model-specific)	0.105	0.853	0.214	–	-0.265
in vitro model: acidic pH 5.7, time point: terminal (~4-5 doublings, model-specific)	0.102	0.986	-0.0261	0.282	-0.322
in vitro model: intracellular J774, time point: constant = terminal	–	0.986	–	-0.499	-0.483

Details	AUC25, [1]	Einf, [2]	FIC50, [5]	FIC90, [3]	GRinf, [4]
in vitro model: butyrate, time point: constant (~7 days, model-specific)	0.0673	0.946	-0.498	-0.794	-0.0975
in vitro model: butyrate, time point: terminal (~4-5 doublings, model-specific)	0.0515	0.979	-0.353	-0.858	-0.101
in vitro model: cholesterol 0.05 mM, time point: constant (~7 days, model-specific)	0.0912	0.741	-0.628	–	-0.147
in vitro model: cholesterol 0.05 mM, time point: terminal (~4-5 doublings, model-specific)	0.0989	0.945	0.39	0.028	-0.224
in vitro model: cholesterol-high 0.2 mM, time point: constant (~7 days, model-specific)	0.0661	0.946	-0.437	-0.58	-0.413
in vitro model: cholesterol-high 0.2 mM, time point: terminal (~4-5 doublings, model-specific)	0.0725	0.997	0.0406	-0.388	-0.62
in vitro model: dormancy (butyrate + nitrate, low O2), time point: constant (~7 days, model-specific)	0.0657	0.905	-0.281	-0.778	0.168
in vitro model: dormancy (butyrate + nitrate, low O2), time point: terminal (~4-5 doublings, model-specific)	0.067	0.988	-0.558	-0.863	-0.267
in vitro model: standard 7H9 glycerol, time point: constant = terminal	0.0822	0.974	-0.132	-0.648	-0.119
in vitro model: valerate, time point: constant (~7 days, model-specific)	0.112	0.94	-0.453	-1.82	-0.151
in vitro model: valerate, time point: terminal (~4-5 doublings, model-specific)	0.0649	0.956	0.0093	-0.0427	-0.0795
